From US20170158702A1, “MULTIVALENT RAS BINDING COMPOUNDS” (KYRAS THERAPEUTICS, INC., priority 2015, published 2017)
Counter-ions that a name gives are not always drawn.

What was measured:
Format in all cases: cell-based
MIA PaCa-2 = test: Viability assay with MIA PaCa-2; settings: MIA PaCa-2, viability assay per Example 57
Procedure: (§1) NCI-H460 (Epithelial lung tissue; carcinoma; large cell lung cancer) were cultured in RPMI Medium 1640 (Invitrogen-22400105) supplemented with 10% fetal bovine serum (FBS; Invitrogen-10099141). All the cell lines were maintained in a humidified incubator at 37° C. with 5% CO2. Cell culture media and supplements were purchased from Invitrogen, and tissue culture flasks were purchased from Corning, 96-well plates were purchased from Greiner. CellTiter-Glo Luminescent Cell Viability Assay kits were purchased from Promega (Promega-G7573), cells counter Vi-Cell was purchased from Beckman, D300e digital dispenser was purchased from Tecan, detection instrument Envision was purchased from PerkinElmer.
(§2) Paclitaxel was purchased from SELLECK, test compounds, such as any one of the compounds disclosed herein, attained solubility in DMSO and when diluted into culture media. DMSO, solutions containing the test compounds, and culture media were warmed to 37° C. or room temperature for the solution preparation and dilutions.
(§3) NCI-H460 Cell line were seeded in 96-well plates (1200/well) and allowed to adhere to overnight (100 uL/well), for drug treatments with 2 fold dilution, 9 dose points, triplicates or vehicle control, compound stock solutions were prepared in DMSO and use D300e digital dispenser to add compounds to the wells to give the indicated final drug concentrations. Final DMSO concentration was 0.5%. Cellular ATP concentrations were assessed by using the CellTiter-Glo Cell Viability Assay as per the manufacturer's instructions 72 h after compounds addition. Additional cells lines were assayed with any one of the compounds disclosed herein according to the procedures described for the viability assay with NCI-H460.
A viability assay with MIA PaCa-2 (Epithelial pancreas tissue; carcinoma) was performed with compounds listed in Table 15, according to the procedures described in Example 57.

HT-29 = test: Viability assay with HT-29; settings: HT-29, viability assay per Example 57
Procedure: as §1, §2, §3
A viability assay with HT-29 (Colorectal adenocarcinoma) was performed with compounds listed in Table 18 according to the procedures described in Example 57.

NCI-H460 = test: Viability assay with NCI-H460 (CellTiter-Glo cytotoxicity assay, 72 h); settings: NCI-H460 cell line, 72 h after compounds addition
Procedure: as §1, §2, §3

Row | SMILES | EC50 (MIA PaCa-2) [µM] | EC50 (HT-29) [µM] | EC50 (NCI-H460) [µM]
1 | NCCCn1cc(-c2cn[nH]c2)c2cc(CN3CCN(Cc4ccccc4Cl)CC3)ccc21 [C192; HCl] | 5 to 10 | 5 to 10 | 5 to 10
2 | NCc1cc(OC(F)(F)F)ccc1-c1cn(CCCNC(=O)C2(N)CCNCC2)c2ccc(CN3CCN(Cc4ccccc4Cl)CC3)cc12 [C264; HCl] | 5 to 10 | 5 to 10 | 5 to 10
3 | NCCCn1cc(-c2ccc(OC(F)(F)F)cc2)c2cc(S(=O)(=O)N3CCN(Cc4ccccc4Cl)CC3)ccc21 [C153; Formic Acid] | ≤ 5 | ≤ 5 | ≤ 5
4 | NCc1ccc(Cn2cc(-c3ccc(OC(F)(F)F)cc3)c3cc(CN4CCN(Cc5ccccc5Cl)CC4)ccc32)cn1 [C224; Formic Acid] | ≤ 5 | ≤ 5 | ≤ 5
5 | CC1(C)CCN(Cc2ccc3c(c2)c(-c2ccc(OC(F)(F)F)cc2CN)cn3CCCN)CC1 [C272; HCl] | 5 to 10 | ≤ 5 | ≤ 5
6 | Nc1ccc(Cn2cc(-c3ccc(OC(F)(F)F)cc3)c3cc(CN4CCN(Cc5ccccc5Cl)CC4)ccc32)cn1 [C232; Formic Acid] | ≤ 5 | ≤ 5 | ≤ 5
7 | FC(F)(F)Oc1ccc(-c2cn(CCCCN(c3ccccn3)c3ccccn3)c3ccc(CN4CCN(Cc5ccccc5Cl)CC4)cc23)cc1 [C205; Formic Acid] | 5 to 10 | 5 to 10 | 5 to 10
8 | NCCCn1cc(-c2ccc(OC(F)(F)F)cc2CN)c2cc(CN3CCCC(N)C3)ccc21 (stereo not drawn) [C259; HCl] | 5 to 10 | 5 to 10 | 5 to 10
9 | NCCCn1cc(-c2ccc(OC(F)(F)F)cc2)c2cc(CN3CCC(Oc4cccc(Cl)c4)CC3)ccc21 [C236; HCl] | ≤ 5 | ≤ 5 | ≤ 5
10 | COc1ccc(-c2cn(C(C)(C)CCN)c3ccc(CN4CCN(Cc5ccccc5Cl)CC4)cc23)cc1 [C206; HCl] | ≤ 5 | ≤ 5 | ≤ 5
11 | NCCCn1cc(-c2ccc(OC(F)(F)F)cc2)c2c(CN3CCN(Cc4ccc(OC(F)(F)F)cc4)CC3)cccc21 [C186; HCl] | 5 to 10 | 5 to 10 | 5 to 10
12 | NCCCn1cc(-c2ccc(OC(F)(F)F)cc2)c2cc(CN3CCC(Oc4ccc(Cl)cc4)CC3)ccc21 [C216; HCl] | ≤ 5 | ≤ 5 | ≤ 5
13 | COc1cccc(Cl)c1-c1cn(CCCN)c2ccc(CN3CCN(Cc4c(Cl)cccc4Cl)CC3)cc12 [C154; HCl] | ≤ 5 | ≤ 5 | ≤ 5
14 | FC(F)(F)Oc1ccc(-n2cc(C3CCNCC3)c3cc(CN4CCN(Cc5ccccc5Cl)CC4)ccc32)cc1 [C217; HCl] | ≤ 5 | ≤ 5 | ≤ 5
15 | NCCCn1cc(-c2ccc(OC(F)(F)F)cc2)c2c(CN3CCN(CCc4ccccc4Cl)CC3)cccc21 [C147; HCl] | ≤ 5 | ≤ 5 | ≤ 5
16 | NCCCn1cc(-c2cccc(CO)c2)c2cc(CN3CCN(Cc4ccccc4Cl)CC3)ccc21 [C152; HCl] | ≤ 5 | ≤ 5 | ≤ 5

Row | SMILES | EC50 (MIA PaCa-2) [µM] | EC50 (HT-29) [µM] | EC50 (NCI-H460) [µM]
17 | FC(F)(F)Oc1ccc(-c2cn(C3CCNCC3)c3ccc(CN4CCN(Cc5ccccc5Cl)CC4)cc23)cc1 [C170; HCl] | ≤ 5 | ≤ 5 | ≤ 5
18 | CN(CCN(C)C(=O)c1ccc2c(c1)c(-c1ccc(OC(F)(F)F)cc1)cn2CCCN)Cc1ccccc1Cl [C193; HCl] | ≤ 5 | ≤ 5 | ≤ 5
19 | NCCCn1cc(-c2ccc(OC(F)(F)F)cc2CN)c2cc(CN3CCC(Cc4ccccc4Cl)CC3)ccc21 [C221; HCl] | ≤ 5 | ≤ 5 | ≤ 5
20 | COc1cccc(CC2CN(Cc3ccc4c(c3)c(-c3ccc(OC(F)(F)F)cc3CN)cn4CCCN)C2)c1 [C279; Formic Acid] | ≤ 5 | ≤ 5 | ≤ 5
21 | COc1ccc(-c2cn(CCCN)c3ccc(CN4CCN(Cc5ccccc5Cl)CC4)cc23)c(CN)c1 [C222; HCl] | ≤ 5 | ≤ 5 | ≤ 5
22 | FC(F)(F)Oc1ccc(-c2cn(CC3CNCCO3)c3ccc(CN4CCN(Cc5ccccc5Cl)CC4)cc23)cc1 (stereo not drawn) [C231; HCl] | ≤ 5 | ≤ 5 | ≤ 5
23 | COc1cnc(-c2cn(CCCN)c3ccc(CN4CCN(Cc5ccccc5Cl)CC4)cc23)nc1 [C204; HCl] | ≤ 5 | ≤ 5 | ≤ 5
24 | COc1ncc(-c2cn(CCCN)c3ccc(CN4CCN(Cc5ccccc5Cl)CC4)cc23)cn1 [C143; HCl] | 5 to 10 | 5 to 10 | 5 to 10
25 | COc1ccc(-c2cn(CCCCN)c3ccc(CN4CC5CCC(C4)N5Cc4ccccc4Cl)cc23)cc1 [C133; HCl] | ≤ 5 | ≤ 5 | ≤ 5
26 | NCCCn1cc(-c2ccc(OC(F)(F)F)cc2)c2cc(CN3CCS(=O)(=O)CC3)ccc21 [C292; Formic Acid] | ≤ 5 | 5 to 10 | ≤ 5
27 | CC(C)(N)CCCn1cc(-c2ccc(OC(F)(F)F)cc2)c2cc(CN3CCN(Cc4ccccc4Cl)CC3)ccc21 [C132; Formic acid] | ≤ 5 | ≤ 5 | ≤ 5
28 | NCCCn1cc(-c2ccc(OC(F)(F)F)cc2CN)c2cc(CN3CCNC(=O)C3)ccc21 [C258; Formic Acid] | 5 to 10 | 5 to 10 | 5 to 10
29 | Cn1ccc(-c2cn(CCCN)c3ccc(CN4CCN(Cc5ccccc5Cl)CC4)cc23)n1 [C189; HCl] | 5 to 10 | ≤ 5 | 5 to 10
30 | Cc1ccc(CN2CCN(Cc3ccc4c(c3)c(-c3ccc(OC(F)(F)F)cc3)cn4CCCN)CC2)cc1 [C146; HCl] | ≤ 5 | ≤ 5 | ≤ 5
31 | NCCCn1cc(-c2ccc(OC(F)(F)F)cc2)c2c(CN3CCN(Cc4ccccc4Cl)CC3)cccc21 [C183; HCl] | ≤ 5 | ≤ 5 | ≤ 5

The next lines start with results.

Row | EC50 (MIA PaCa-2) [µM] | EC50 (HT-29) [µM] | SMILES | EC50 (NCI-H460) [µM]
32 | ≤ 5 | ≤ 5 | NCCCn1cc(-c2ccc(OC(F)(F)F)cc2)c2cc(CN3CCC(Oc4ccccc4Cl)CC3)ccc21 [C215; HCl] | ≤ 5
33 | ≤ 5 | ≤ 5 | NCCCn1cc(-c2ccc(OC(F)(F)F)cc2CN)c2cc(CN3CCOCC3)ccc21 [C265; HCl] | ≤ 5
34 | ≤ 5 | ≤ 5 | CC1CCN(Cc2ccc3c(c2)c(-c2ccc(OC(F)(F)F)cc2CN)cn3CCCN)CC1 [C257; HCl] | ≤ 5
35 | ≤ 5 | ≤ 5 | NCCCn1cc(-c2ccc(C(N)=O)cc2)c2cc(CN3CCN(Cc4ccccc4Cl)CC3)ccc21 [C180; HCl] | ≤ 5
36 | ≤ 5 | ≤ 5 | NCC(=O)NCc1ccc(-n2cc(-c3ccc(OC(F)(F)F)cc3)c3cc(CN4CCN(Cc5ccccc5Cl)CC4)ccc32)cn1 [C219; HCl] | ≤ 5
37 | ≤ 5 | ≤ 5 | NC1CCC(n2cc(-c3ccc(OC(F)(F)F)cc3)c3cc(CN4CCN(Cc5ccccc5Cl)CC4)ccc32)CC1 (stereo not drawn) [C212; HCl] | ≤ 5
38 | ≤ 5 | ≤ 5 | FC(F)(F)Oc1ccc(-c2cn(CC3CCNCC3)c3ccc(CN4CCN(Cc5ccccc5Cl)CC4)cc23)cc1 [C171; HCl] | ≤ 5
39 | ≤ 5 | ≤ 5 | NCCCn1cc(-c2ccc(OC(F)(F)F)cc2)c2cc(CN3CCN(CCc4ccccc4Cl)CC3)ccc21 [C140; HCl] | ≤ 5
40 | ≤ 5 | 5 to 10 | NCCCn1cc(-c2ccc(OC(F)(F)F)cc2CN)c2cc(CN3CCCCC3)ccc21 [C260; HCl] | 5 to 10
41 | ≤ 5 | ≤ 5 | COc1cc(OC)cc(C(C)(C)N2CCN(Cc3ccc4c(c3)c(-c3ccc(OC(F)(F)F)cc3CN)cn4CCCN)CC2)c1 [C285; HCl] | ≤ 5
42 | ≤ 5 | ≤ 5 | COc1ccc(CN2CCN(Cc3ccc4c(c3)c(-c3ccc(OC(F)(F)F)cc3CN)cn4CCCN)CC2)cc1 [C266; HCl] | ≤ 5
43 | ≤ 5 | ≤ 5 | COc1cccc(CN2CCC(Cc3ccc4c(c3)c(-c3ccc(OC(F)(F)F)cc3CN)cn4CCCN)CC2)c1 [C291; HCl] | ≤ 5
44 | ≤ 5 | ≤ 5 | NCCCn1cc(-c2ccc(OC(F)(F)F)cc2)c2cc(CN3CCN(Cc4ccc(C(F)(F)F)cc4)CC3)ccc21 [C136; HCl] | ≤ 5
45 | ≤ 5 | ≤ 5 | NCCCn1cc(-c2ccc(OC(F)(F)F)cc2)c2cc(CN3CCN(Cc4ccc(Cl)cc4)CC3)ccc21 [C137; HCl] | ≤ 5
46 | ≤ 5 | ≤ 5 | COc1ccc(-c2cn(CCCN)c3ccc(CN4CCN(Cc5ccccc5Cl)CC4)cc23)cn1 [C141; HCl] | ≤ 5
